The values below come from PubChem BioAssay (NCI).

In general, GI50 refers to the concentration giving 50% growth inhibition. As a reminder, the TGI is the concentration giving total growth inhibition.

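Values below derive from 48-hour exposures of cells grown in 96-well plates, with endpoints linearly interpolated between the two concentrations bracketing the appropriate inhibition level. At the GI50, growth is halved. TGI marks complete inhibition of growth.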

Test systems include K-562 leukemia; HCT-116 colon; TK-10 renal; HOP-62 NSCLC; UACC-257 melanoma; LOX IMVI melanoma; EKVX NSCLC; HL-60(TB) leukemia; SF-268 CNS.
Holding throughout (test): DTP human tumour cell line panel, 48 h

On to `CCC[CH2][Sn]1([CH2]CCC)[O]CC(Cc2ccccc2)[O]1` (stereo unspecified), for which the GI50 is 1.67 µM with K-562 leukemia; 3.75 µM in the assay with HCT-116 colon; 2.64 µM with TK-10 renal; 4.04 µM in the assay with HOP-62 NSCLC; 1.88 µM in the assay on UACC-257 melanoma; 1.68 µM in the assay with LOX IMVI melanoma. Further, the GI50 in the assay on EKVX NSCLC is 2.39 µM; in the assay with HL-60(TB) leukemia it was 0.51 µM. The TGI in the assay on K-562 leukemia stood at 6.64 µM; in the assay with HCT-116 colon, 13.5 µM; in the assay with TK-10 renal it was 7.27 µM; in the assay with HOP-62 NSCLC, 19.4 µM; in the assay with UACC-257 melanoma, 5.27 µM; with LOX IMVI melanoma, 3.63 µM. Moreover, the values for the TGI in the assay with EKVX NSCLC and in the assay with HL-60(TB) leukemia were 8.77 µM and 2.31 µM, respectively.
As for `COC(=O)/C=C1/CCC(C(=O)OC)N1` (stereo unspecified), the TGI with K-562 leukemia, in the assay on HCT-116 colon, with TK-10 renal, in the assay with HOP-62 NSCLC, in the assay with UACC-257 melanoma and in the assay with LOX IMVI melanoma was above 100 µM each time. Moreover, the concentration for total growth inhibition (TGI) in the assay on SF-268 CNS, with EKVX NSCLC and with HL-60(TB) leukemia was above 100 µM each time.
Turning to `COC(=O)N(C(=O)OC)C(C(=O)O)C(C)C` (stereo unspecified), the TGI in the assay with TK-10 renal, in the assay with HOP-62 NSCLC, in the assay on UACC-257 melanoma, in the assay with LOX IMVI melanoma, in the assay with SF-268 CNS and with EKVX NSCLC was above 100 µM throughout. In addition, in the assay with HL-60(TB) leukemia, the TGI was above 100 µM.
`CCCCCC[N+](C)(C)Cc1ccc(C[N+](C)(C)CCCCCC)cc1`: the TGI in the assay with K-562 leukemia was 5.65 µM; in the assay with HCT-116 colon, 12.8 µM; with TK-10 renal it was 24.3 µM; in the assay with HOP-62 NSCLC, 8.23 µM; in the assay on UACC-257 melanoma it was 35.5 µM; in the assay on SF-268 CNS, above 100 µM. Further, in the assay on EKVX NSCLC, the TGI was 27.7 µM.
Take `CN(C)CC(C)(C)C(=O)/C=C/c1ccc(/C=C/C(=O)C(C)(C)CN(C)C)cc1`: the concentration for total growth inhibition (TGI) with K-562 leukemia is 0.594 µM; in the assay on HCT-116 colon, 2.55 µM; with TK-10 renal, 3.03 µM; with HOP-62 NSCLC it was 4.51 µM; with UACC-257 melanoma, 3.83 µM; in the assay with LOX IMVI melanoma, 1.69 µM. For the same compound, the total growth inhibition concentration (TGI) was 2.86 µM with SF-268 CNS, 3.26 µM with EKVX NSCLC and 4.17 µM in the assay on HL-60(TB) leukemia.
On to `O=C(O)CCCCCCC[C@H]1S[C@H]1CCCCCCO`, for which the TGI in the assay on K-562 leukemia, with HCT-116 colon, with TK-10 renal, in the assay on HOP-62 NSCLC, with SF-268 CNS and with EKVX NSCLC was above 100 µM throughout. In the assay on HL-60(TB) leukemia, this compound came in with a TGI above 100 µM.
As to `[Cl-].[O-]/N=C(\c1ccccc1)c1ccccn1.[O-]/N=C(\c1ccccc1)c1ccccn1.[O-]/N=C(\c1ccccc1)c1ccccn1.[Sm+3]`, the GI50 with K-562 leukemia is 32.6 µM; in the assay with HCT-116 colon, 41.2 µM; in the assay on TK-10 renal, 24.5 µM; with HOP-62 NSCLC, 28 µM; in the assay on UACC-257 melanoma, 23.8 µM; with LOX IMVI melanoma it was 22.4 µM. The GI50 was 30 µM with SF-268 CNS, 29.4 µM with EKVX NSCLC and 20.1 µM with HL-60(TB) leukemia. For the same compound, the total growth inhibition concentration (TGI) with K-562 leukemia is above 100 µM; with HCT-116 colon it was above 100 µM; in the assay on TK-10 renal, above 100 µM; with HOP-62 NSCLC, above 100 µM; in the assay on UACC-257 melanoma, 73.6 µM; with LOX IMVI melanoma it was 53.3 µM. Moreover, the results for the TGI in the assay on SF-268 CNS, in the assay on EKVX NSCLC and with HL-60(TB) leukemia were 87.3 µM, above 100 µM and 62.1 µM, respectively.
For `Cc1ccc(SC(CCC(Sc2ccc(C)cc2)Sc2ccc(C)cc2)Sc2ccc(C)cc2)cc1`, the TGI in the assay on K-562 leukemia, in the assay with HCT-116 colon, in the assay on TK-10 renal, in the assay on HOP-62 NSCLC, in the assay with UACC-257 melanoma and with LOX IMVI melanoma was above 100 µM each time. The concentration for total growth inhibition (TGI) in the assay on SF-268 CNS, in the assay with EKVX NSCLC and in the assay with HL-60(TB) leukemia was above 100 µM each time.
For `O=C1c2ccccc2C(Br)(Br)c2ccccc21`, the concentration for total growth inhibition (TGI) with K-562 leukemia is above 31.6 µM; in the assay with HCT-116 colon it was above 31.6 µM; in the assay with TK-10 renal, above 100 µM; with UACC-257 melanoma it was above 100 µM; in the assay on LOX IMVI melanoma, above 31.6 µM; in the assay with SF-268 CNS it was above 31.6 µM. Also, the values for the TGI in the assay with EKVX NSCLC and in the assay on HL-60(TB) leukemia were above 100 µM and above 31.6 µM, respectively.
On to `CC(=O)[O][Ga]([Cl])[O]C(C)=O`, for which the GI50 in the assay with K-562 leukemia, in the assay with HCT-116 colon, in the assay with TK-10 renal, in the assay with UACC-257 melanoma, in the assay with LOX IMVI melanoma and with SF-268 CNS was above 100 µM each time. Besides, the GI50 with HL-60(TB) leukemia was above 100 µM. Besides, the total growth inhibition concentration (TGI) with K-562 leukemia, in the assay on HCT-116 colon, with TK-10 renal, in the assay with UACC-257 melanoma, with LOX IMVI melanoma and in the assay on SF-268 CNS was above 100 µM each time. The same compound gave a TGI in the assay with HL-60(TB) leukemia above 100 µM.
In the case of `CC(C)=CC(=O)C/C(=N\NC(N)=S)C(=O)Nc1ccc(Cl)cc1`, the total growth inhibition concentration (TGI) in the assay on K-562 leukemia, in the assay on HCT-116 colon, in the assay with TK-10 renal, in the assay on UACC-257 melanoma, in the assay on LOX IMVI melanoma and in the assay with SF-268 CNS was above 100 µM each time. The concentration for total growth inhibition (TGI) in the assay with EKVX NSCLC and with HL-60(TB) leukemia was above 100 µM each time.
With `C=C1C(=O)O[C@@H]2C[C@@H](C)[C@@H]3C=CC(=O)[C@@]3(C)[C@@H](OC(=O)CC(=O)O[C@H]3[C@@H]4C(=C)C(=O)O[C@@H]4C[C@@H](C)[C@@H]4C=CC(=O)[C@]43C)[C@H]12`, the concentration for total growth inhibition (TGI) is below 0.0322 µM in the assay with K-562 leukemia; 0.0398 µM in the assay with HCT-116 colon; 0.47 µM in the assay on TK-10 renal; 1.18 µM in the assay on HOP-62 NSCLC; 0.0812 µM in the assay on UACC-257 melanoma; 0.069 µM in the assay with LOX IMVI melanoma. Moreover, the TGI in the assay with SF-268 CNS was determined as 0.374 µM; in the assay on EKVX NSCLC, 0.32 µM.
Regarding `O=c1nc(/C=C/c2ccccc2Cl)cc2n1CCN2CCO`, the TGI with K-562 leukemia, in the assay with HCT-116 colon, in the assay on TK-10 renal, in the assay with HOP-62 NSCLC, in the assay with LOX IMVI melanoma and with SF-268 CNS was above 100 µM each time. Moreover, the TGI with EKVX NSCLC and in the assay on HL-60(TB) leukemia was above 100 µM in each case.
In the case of `COc1ccc(Nc2nc3ccc(C(F)(F)F)cc3nc2-c2ccccc2)cc1OC`, the TGI was above 100 µM in the assay on K-562 leukemia; above 100 µM with HCT-116 colon; above 100 µM in the assay on HOP-62 NSCLC; above 100 µM in the assay with UACC-257 melanoma; 31.6 µM with LOX IMVI melanoma; above 100 µM in the assay on SF-268 CNS. In addition, the TGI was 80.3 µM in the assay on EKVX NSCLC and above 100 µM with HL-60(TB) leukemia.
Regarding `Cc1cc2c(ccc3c(C)cc(=O)oc32)o1`, the TGI in the assay with K-562 leukemia, in the assay with HCT-116 colon, with TK-10 renal, in the assay with HOP-62 NSCLC, with UACC-257 melanoma and in the assay on LOX IMVI melanoma was above 100 µM throughout. Further, the TGI in the assay on SF-268 CNS and with EKVX NSCLC was above 100 µM in each case.
For `COc1ccc(S(=O)(=O)Nc2ccccc2C(=O)O)cc1`, the TGI in the assay with K-562 leukemia, in the assay with TK-10 renal, in the assay with UACC-257 melanoma, in the assay on LOX IMVI melanoma, in the assay on SF-268 CNS and in the assay with EKVX NSCLC was above 100 µM throughout. Moreover, in the assay on HL-60(TB) leukemia, the total growth inhibition concentration (TGI) is above 100 µM.
Turning to `C=C(COC(C)=O)CC(OC(C)=O)c1ccccc1` (stereo unspecified), the TGI in the assay with K-562 leukemia, with HCT-116 colon, in the assay on TK-10 renal, in the assay with HOP-62 NSCLC, with LOX IMVI melanoma and with SF-268 CNS was above 100 µM each time. Moreover, the TGI with EKVX NSCLC and in the assay on HL-60(TB) leukemia was above 100 µM throughout.
As to `Cc1ccc(NC(=O)C2C(=O)N(c3ccc(C)cc3)C(=O)/C2=N\NC(N)=S)cc1` (stereo unspecified), the TGI in the assay on K-562 leukemia, in the assay on HCT-116 colon, with TK-10 renal, in the assay on HOP-62 NSCLC, in the assay with UACC-257 melanoma and with LOX IMVI melanoma was above 100 µM throughout. The total growth inhibition concentration (TGI) with SF-268 CNS and in the assay on EKVX NSCLC was above 100 µM in each case.
For `CC1CCC2(CC1)NN=c1s/c(=C\c3ccc(O)cc3)c(=O)n1N2` (stereo unspecified), the total growth inhibition concentration (TGI) in the assay on K-562 leukemia, in the assay on HCT-116 colon, in the assay on TK-10 renal, in the assay on HOP-62 NSCLC, in the assay on LOX IMVI melanoma and in the assay on SF-268 CNS was above 100 µM each time. In addition, the TGI with EKVX NSCLC and with HL-60(TB) leukemia was above 100 µM throughout.
Take `COc1ccc(OC)c2c1CC(C(=O)O)(C(=O)O)CC2=O`: the concentration for total growth inhibition (TGI) in the assay with K-562 leukemia, with HCT-116 colon, in the assay with TK-10 renal, in the assay with HOP-62 NSCLC, with LOX IMVI melanoma and in the assay with SF-268 CNS was above 100 µM throughout. Also, the TGI in the assay with EKVX NSCLC and in the assay on HL-60(TB) leukemia was above 100 µM each time.
With `COc1ccc2c(c1)N1CCc3cc(OC)c(OC)cc3C1C2` (stereo unspecified), the concentration for total growth inhibition (TGI) in the assay with K-562 leukemia, in the assay with TK-10 renal, in the assay on HOP-62 NSCLC, in the assay with UACC-257 melanoma, in the assay on LOX IMVI melanoma and with SF-268 CNS was above 100 µM throughout. The TGI with EKVX NSCLC and with HL-60(TB) leukemia was above 100 µM in each case.
